Reference: patent US8778403B2, “Diketopiperazine microparticles with defined specific surface areas” (MannKind Corporation, priority 2009, dated 2014)

Test: Solubility of FDKP as a function of pH
Format: physicochemical

solubility (at neutral or basic pH): readily soluble
solubility (in acid): low solubility
SMILES: O=C(O)/C=C/C(=O)NCCCCC1NC(=O)C(CCCCNC(=O)/C=C/C(=O)O)NC1=O (centres unmarked) [FDKP, bis-3,6-(N-fumaryl-4-aminobutyl)-2,5-diketo-diketopiperazine]
